Results from US9017654B2, “Preparation for vaccination, vaccination method and use of a vaccination preparation” (priority 2004, dated 2015).

Assays:
[1] = tested on: CFSE-marked syngenic spleen cells charged with SGP peptide (target cells for the CTLs); test: In vivo killer assay; design: species or system mice; conditions: for specific reaction (FIG. 2, functionality of transcutaneously activated CTL): transcutaneous treatment, in vivo killer assay 6 days after immunisation
Description: The specific cytotoxic functionality of the activated cells was determined by means of what is known as an in vivo killer assays 6 days after the last immunisation. For this purpose spleen cells marked with CFSE (5,6-carboxyfluorescein diacetate succinimidylester, Molecular Probes) from syngenic mice were used as target cells for the cytotoxic T cells (CTLs). Half of the cells were dyed with 3 μM CFSE, the other half with 0.3 μM CFSE. The cells marked with 3 μM CFSE were charged with the synthetic SGP peptide (10 μM peptide; 40×10^6 cells per ml ISC medium; 1 h; 37° C.) and these were then washed twice with medium and twice with PBS. The cells marked with 0.3 μM CFSE were only incubated in ISC medium and also washed. The cells were mixed in a ratio of 1:1 and the mice were injected in vivo with 15×10^6 cells in 300 μl PBS in each case. After 18 h the mice were killed and the spleen cells removed and flow cytometrically analysed. The CFSE-positive cells were counted in a FACS-Canto flow cytometer. The specific lysis resulted from the ratio of cell counts of the cells charged with peptide and strongly marked with CFSE and the cells that were not charged with peptide and were weakly marked with CFSE. Since the two cell populations had been used in a ratio of 1:1 the number of cells not charged with peptide tallies with the original number of cells charged with peptide. The specific lysis is then calculated as follows:
[formula] [formula] CFSE Marking
The spleen cells were prepared as described above. Following ACK lysis the cells were resuspended in 10 ml PBS, counted and adjusted to 2×10^7 cells per ml. The cell suspension was mixed with an adequate volume of a 6 μM or 0.6 μM CFSE solution (in PBS) and incubated for 4 min at 37° C. The reaction was then stopped following addition of double the volume of ISC medium supplemented with 10% foetal calf serum (FCS). The cells were washed twice with FCS-free medium and counted.
To determine the functionality of the activated cells an in vivo killer assay was carried out 6 days after immunisation. For this purpose syngenic spleen cells marked with a high CFSE concentration were charged with peptide, mixed 1:1 with cells marked with a weak CFSE concentration and not charged with peptide and transferred i.v. into the mice. […] The fluorescence of the spleen cells in the FL-1 channel (CFSE) can be seen in each case. The lysis was calculated to the number of uncharged cells and is given in percent (B).
To determine the functionality of the activated cells an in vivo killer assay was carried out 6 days after immunisation. […] The fluorescence of the spleen cells in the FL-1 channel (CFSE) can be seen in each case. The specific lysis was calculated to the number of uncharged cells and is given in percent.

[2] = tested on: TCR transgenic cytotoxic T cells (CTL), CD45.1-positive CD8+; test: Analysis of the number of adoptively transferred transgenic cytotoxic T cells (CTL) in blood/spleen after immunisation (flow cytometry); format: in vivo, mice
Source text: In this model a defined transgenic, which codes for a specific T cell receptor that recognises a specific MHC class I ligand ([…] (SEQ ID NO: 23); abbreviated to SGP) from the adenovirus type 5 in the context of MHC class I (H2-D^b), was introduced into mice. As already characterised by the inventors [“M. Hofmann, M. Radask, G. Rechtsteiner, K. Wiemann, M. Grander, U. Bien-Gräter, R. Offfringa, R.E.M. Toes, H.G. Rammensee, H. Schild; T cell avidity determines the level of CTL activation; Eur. J. Immunol. 2004: 34, 1798 to 1806”], the cytotoxic T cells (CTL) from these animals were only activated if they came into contact with this MHC class I ligand SGP in the context of H2-D^b. To be able to follow the activation of this CTL in the recipient animal the non-activated (naïve) CTL from transgenic donor mice was intravenously (i.v.) injected into syngenic recipient mice which differed in the allele of a lymphocyte marker (CD45.1 on transgenic cells or CD45.2 on cells of the recipient mice). […]
To measure the proliferation of the adoptively transferred cells blood was taken from the tail vein of the mice 4 days after the last immunisation and the blood sample was analysed flow cytometrically. […] For flow cytometric analysis of the cells they were stained with fluorescence-marked antibodies (anti-CD8 APC-Cy7-conjugated, anti-CD45.1 PE-conjugated (commercially available from Becton-Dickinson Pharmingen, Hamburg)) and, more precisely, for 30 min in 50 μl FACS buffer on ice in 96-well circular bottomed plates. The cells were washed twice with FACS buffer and analysed in a FACS-canto flow cytometer (Becton-Dickinson Pharmingen, Hamburg). […]
The transgenic CD8^+ cell content in the total population of CD8^+ cells was flow cytometrically determined in the blood or spleen. […] The fluorescence in the FL-2 channel (PE) of the CD8^+ lymphocytes can be seen in each case. […] In all mice the transgenic CD8^+ cells content prior to immunisation and 4 days after immunisation was determined in the spleen (A).

Compound	specific reaction (FIG. 2, functionality of transcutaneously activated CTL) [1]	Specific lysis (%) ([1]; Group 3: 50 μg peptide (i.d.) alone, 6 days after immunisation)	functional activation of the CTL ([1]; immunisation with peptide only (group Mouse 3), FIG. 1B)	% transgenic CD8+ in total CD8+, Day 4 Blood ([2]; Group 3: 50 μg peptide (i.d.) alone, day 4, blood)	% transgenic CD8+ in total CD8+, Day 6 Spleen ([2]; Group 3: 50 μg peptide (i.d.) alone, day 6, spleen)	increase in transgenic cells ([2]; peptide applied on its own (without additives, adjuvants))
CC(C)Cn1cnc2c(N)nc3ccccc3c21 [imiquimod, 1-(2-methylpropyl-)1H-imidazo[4,5-c]quinolin-4-amine, reference compound]	did not exhibit a specific reaction	–	–	–	–	–
SGPSNTPPEI (Adenovirus type 5) [peptide, MHC class I ligand (H2-Db) from the E1A protein of adenovirus type 5, synthetically produced]	did not exhibit a specific reaction	3.51%	does not lead to functional activation	4.38%	2.04%	only a marginal increase
